Assay results from paper PMC5011342, “A high throughput drug screening assay to identify compounds that promote oligodendrocyte differentiation using acutely dissociated and purified oligodendrocyte precursor cells” (BMC Research Notes, 2016).
Like-named read-outs stand apart in the source and are kept apart here.

Assays:
[1] = system: expanded OPCs; test: cells; details: for viability at 0.1 µM / viability at 1 µM / viability at 10 µM: Rattus norvegicus, 72 h; for 0.1 µM (% DMSO) / 1 µM (% DMSO) / 10 µM (% DMSO): alamarBlue viability of expanded OPCs; for 0.1 µM (% DMSO): compound at 0.1 µM; for 1 µM (% DMSO): compound at 1 µM; for 10 µM (% DMSO): compound at 10 µM
Method: Having established a consistent assay for measuring OL differentiation in vitro, the next step was to utilize this assay to assess the ability of a wide array of compounds to promote OL differentiation. Prior to library screening, we first established the maximum non-toxic dose of each compound in the library. […] Therefore, we added each compound in the NIH clinical collection (NCC) library to OPCs at 10, 1, and 0.1 µM concentrations. Three days later, we assessed viability of the treated cells by measuring AlamarBlue fluorescence, a measure of cell viability (see “Methods” section). […] Appropriately, we established three sets of screening concentrations for library compounds: non-toxic compounds were tested at 10 and 2 µM, slightly toxic compounds (only toxic at 10 µM) were tested at 2 and 0.4 µM, and very toxic compounds were tested at 0.4 and 0.08 µM.
OPCs were expanded in vitro by seeding into PDL-coated tissue culture flasks at 1000–2000 cells/cm^2 in differentiation media supplemented with 10 ng/ml PDGF-AA. Proliferating OPCs were fed every 2–3 days and supplemented with 2–3× concentration of PDGF as needed to prevent OPC differentiation. After 6–7 days of proliferation, OPCs were harvested by trypsinization, plated into PDL-coated 96-well Falcon plates and centrifuged at 200×g to facilitate cell attachment, survival, and even distribution of cells. Expanded OPCs were seeded in differentiation media at 10,000 cells/well and incubated for 2 h at 37 °C, 10 % CO2 prior to addition of compounds. The NCC library was diluted and added to cells at 10, 1, and 0.1 µM; each concentration was tested in quadruplicate. As a positive control for the induction of toxicity, 5 ng/ml tunicamycin was added to 8 wells in each plate. Three days later, a 1:10 dilution of alamarBlue® (AB) was added to each well and cells were incubated 4 h at 37 °C, 10 % CO2. AB fluorescence was measured using a PerkinElmer Victor II fluorescence microplate reader (PerkinElmer, Waltham, MA) with 560 nm excitation/590 nm emission filters. For library screening, the highest concentration of each compound was adjusted to a minimally toxic concentration based on this toxicity data. Compounds were additionally tested at a second concentration that was 1/5th of the top concentration. The final concentration of DMSO in each well was 0.1 %.

[2] = system: acutely dissociated and purified rat OPCs; test: Acute OL differentiation assay (MBP expression/cell, immunofluorescent image quantification); format: cell-based; details: sheet "All OLga data"; for activation at 2 µM / activation at 10 µM / activation at 0.08 µM / activation at 0.4 µM: Rattus norvegicus; for activation at 0.08 µM: test compound at 0.08 uM, read-out: 0.08 uM (% Quet); for activation at 0.4 µM: test compound at 0.4 uM, read-out: 0.4 uM (% Quet)
Outline: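 Oligodendrocyte precursor cells were enriched from P6-P7 Sprague–Dawley rat brains by immunopanning (RAN-2 and GalC depletion, O4 selection), plated at 5000 cells/well in serum-free, mitogen-free differentiation media on PDL/laminin 96-well view plates, centrifuged at 200×g, and pre-incubated 1–2 h before test compounds were added in quadruplicate. On DIV4, cells were fixed, stained for MBP and DAPI, imaged automatically, and MBP expression per cell was quantified.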

[3] = read-out: 0.1 µM (% DMSO), alamarBlue viability of expanded OPCs, compound at 0.1 µM, sheet All Tox data
[4] = read-out: 1 µM (% DMSO), alamarBlue viability of expanded OPCs, compound at 1 µM, sheet All Tox data
[5] = read-out: 10 µM (% DMSO), alamarBlue viability of expanded OPCs, compound at 10 µM, sheet All Tox data
[6] = 2 uM test compound, relative to quetiapine, read-out: OL differentiation, 2 uM (% Quet)
[7] = 10 uM test compound, relative to quetiapine, read-out: OL differentiation, 10 uM (% Quet)
[8] = read-out: 0.1 µM (% DMSO), alamarBlue viability, NCC library compound at 0.1 µM, sheet "All Tox data"
[9] = read-out: 1 µM (% DMSO), alamarBlue viability, NCC library compound at 1 µM, sheet "All Tox data"
[10] = read-out: 10 µM (% DMSO), alamarBlue viability, NCC library compound at 10 µM, sheet "All Tox data"
[11] = test compound at 2 uM, NCC library screen, relative to quetiapine, read-out: 2 uM (% Quet)
[12] = test compound at 10 uM, NCC library screen, relative to quetiapine, read-out: 10 uM (% Quet)
[13] = test compound at 2 uM, MBP expression relative to quetiapine, NCC library screen, read-out: 2 uM (% Quet)
[14] = test compound at 10 uM, MBP expression relative to quetiapine, NCC library screen, read-out: 10 uM (% Quet)
[15] = NCC library screen, relative to quetiapine

## Cc1nnc2n1-c1ccc(Cl)cc1C(c1ccccc1)=NC2 [Alprazolam]
[1]; [3]
  viability at 0.1 µM: 102%
[1]; [4]
  viability at 1 µM: 115%
[1]; [5]
  viability at 10 µM: 139%
[2]; [6]
  activation at 2 µM: -12.2%
[2]; [7]
  activation at 10 µM: -116%

## CCCCC[C@H](O)/C=C/[C@H]1[C@H](O)CC(=O)[C@@H]1CCCCCCC(=O)O [Alprostadil]
[1]; [8]
  viability at 0.1 µM: 84.4%
[1]; [9]
  viability at 1 µM: 85.6%
[1]; [10]
  viability at 10 µM: 81.6%
[2]; [11]
  activation at 2 µM: -7.2%
[2]; [12]
  activation at 10 µM: -67.6%

## O=C(c1ccc(F)cc1)C1CCN(CCn2c(=S)[nH]c3ccccc3c2=O)CC1 [Altanserin]
[1]; [8]
  viability at 0.1 µM: 107%
[1]; [9]
  viability at 1 µM: 94.1%
[1]; [10]
  viability at 10 µM: 56%
[2]; [6]
  activation at 2 µM: -4%
[2]; [7]
  activation at 10 µM: -10%

## CN(C)c1nc(N(C)C)nc(N(C)C)n1 [Altretamine]
[1]; [8]
  viability at 0.1 µM: 94.2%
[1]; [9]
  viability at 1 µM: 87.4%
[1]; [10]
  viability at 10 µM: 85%
[2]; [11]
  activation at 2 µM: -1.1%
[2]; [12]
  activation at 10 µM: -13.9%

## NC12CC3CC(CC(C3)C1)C2 [Amantadine]
[1]; relative to DMSO control
  0.1 µM (% DMSO): 89.6 % DMSO
  1 µM (% DMSO): 86.9 % DMSO
  10 µM (% DMSO): 77.6 % DMSO
[2]; [11]
  activation at 2 µM: -21.4%
[2]; [12]
  activation at 10 µM: -19.9%

## CC(=O)OCC(=O)[C@@]12OC3(CCCC3)O[C@@H]1C[C@H]1[C@@H]3CCC4=CC(=O)C=C[C@]4(C)[C@@]3(F)[C@@H](O)C[C@@]12C [Amcinonide]
[1]; relative to DMSO control
  0.1 µM (% DMSO): 113.8 % DMSO
  1 µM (% DMSO): 123.7 % DMSO
  10 µM (% DMSO): 114.6 % DMSO
[2]; [13]
  activation at 2 µM: 18.1%
[2]; [14]
  activation at 10 µM: -10.2%

## CC1(C)S[C@@H]2[C@H](/N=C/N3CCCCCC3)C(=O)N2[C@H]1C(=O)O [Amdinocillin]
[1]; [3]
  viability at 0.1 µM: 89.7%
[1]; [4]
  viability at 1 µM: 98.8%
[1]; [5]
  viability at 10 µM: 102%
[2]; [6]
  activation at 2 µM: -15.6%
[2]; [7]
  activation at 10 µM: 5.8%

## N=C(N)NC(=O)c1nc(Cl)c(N)nc1N [Amiloride]
[1]; [3]
  viability at 0.1 µM: 82.2%
[1]; [4]
  viability at 1 µM: 83.7%
[1]; [5]
  viability at 10 µM: 90.8%
[2]; [6]
  activation at 2 µM: -5.9%
[2]; [7]
  activation at 10 µM: -0.4%

## CCC1(c2ccc(N)cc2)CCC(=O)NC1=O (stereo not shown) [Aminoglutethimide]
[1]; relative to DMSO control
  0.1 µM (% DMSO): 94.4 % DMSO
  1 µM (% DMSO): 89.6 % DMSO
  10 µM (% DMSO): 84.0 % DMSO
[2]; [13]
  activation at 2 µM: -11%
[2]; [14]
  activation at 10 µM: -7.7%

## NCC(=O)CCC(=O)O [Aminolevulinic Acid]
[1]; [8]
  viability at 0.1 µM: 96%
[1]; [9]
  viability at 1 µM: 86.7%
[1]; [10]
  viability at 10 µM: 73.4%
[2]; [11]
  activation at 2 µM: 5.1%
[2]; [12]
  activation at 10 µM: -16.1%

## CCCCc1oc2ccccc2c1C(=O)c1cc(I)c(OCCN(CC)CC)c(I)c1 [Amiodarone]
[1]; [8]
  viability at 0.1 µM: 74.9%
[1]; [9]
  viability at 1 µM: 8.8%
[1]; [10]
  viability at 10 µM: 8.6%
[2]; [15]
  activation at 0.08 µM: 44.2%

## Nc1c2c(nc3c1CCC3)CCCC2 [Amiridine]
[1]; sheet All Tox data
  0.1 µM (% DMSO): 87.3 % DMSO
  1 µM (% DMSO): 86.4 % DMSO
  10 µM (% DMSO): 89.5 % DMSO
[2]; 2 uM test compound, relative to quetiapine
  OL differentiation, 2 uM (% Quet): 7.6 % Quet
[2]; 10 uM test compound, relative to quetiapine
  OL differentiation, 10 uM (% Quet): 34.5 % Quet

## CN(C)CCC=C1c2ccccc2CCc2ccccc21 [Amitriptyline]
[1]; relative to DMSO control
  0.1 µM (% DMSO): 82.0 % DMSO
  1 µM (% DMSO): 60.1 % DMSO
  10 µM (% DMSO): 18.3 % DMSO
[2]; [15]
  activation at 0.4 µM: -6%
[2]; [11]
  activation at 2 µM: -23.5%

## CC(C)c1ccc2oc3nc(N)c(C(=O)O)cc3c(=O)c2c1 [Amlexanox]
[1]; [3]
  viability at 0.1 µM: 84.3%
[1]; [4]
  viability at 1 µM: 88.6%
[1]; [5]
  viability at 10 µM: 91.9%
[2]; [6]
  activation at 2 µM: -11.6%
[2]; [7]
  activation at 10 µM: -20%

## CCOC(=O)C1=C(COCCN)NC(C)=C(C(=O)OC)C1c1ccccc1Cl (stereo not shown) [Amlodipine]
[1]; [8]
  viability at 0.1 µM: 69.7%
[1]; [9]
  viability at 1 µM: 22.7%
[1]; [10]
  viability at 10 µM: 8.6%
[2]; [15]
  activation at 0.08 µM: -17.1%
  activation at 0.4 µM: -39.6%

## Clc1ccc2c(c1)C(N1CCNCC1)=Nc1ccccc1O2 [Amoxapine]
[1]; [8]
  viability at 0.1 µM: 62%
[1]; [9]
  viability at 1 µM: 40%
[1]; [10]
  viability at 10 µM: 19.2%
[2]; [15]
  activation at 0.08 µM: 13%
  activation at 0.4 µM: -10.8%
